Tested on: 699152-130-R-J1-PDC complex spheroid viability
Experiment: Anticancer human tumor 699152-130-R-J1-PDC patient-derived pancreatic carcinoma cell line growth inhibition [POLQ]
Conditions: for IC50: curve of first compound; for viability, T/C: stronger effect = lower value
Outline: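 Three-cell-type spheroids modelling solid tumor plus stroma served as the readout system; POL inhibitors were tested individually and in combination, concentration ranges set by clinical Cmax where known.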

[1] = second compound 0.0316 µM, first compound 0.0316 µM
[2] = second compound 0.0316 µM, first compound 0.1 µM
[3] = second compound 0.0316 µM, first compound 0.316 µM
[4] = second compound 0.0316 µM, first compound 1 µM
[5] = second compound 0.0316 µM, first compound 3.16 µM
[6] = second compound 0.0316 µM, first compound 10 µM
[7] = second compound 0.1 µM, first compound 0.0316 µM
[8] = second compound 0.1 µM, first compound 0.1 µM
[9] = second compound 0.1 µM, first compound 0.316 µM
[10] = second compound 0.1 µM, first compound 1 µM
[11] = second compound 0.1 µM, first compound 3.16 µM
[12] = second compound 0.1 µM, first compound 10 µM
[13] = second compound 0.316 µM, first compound 0.0316 µM
[14] = second compound 0.316 µM, first compound 0.1 µM
[15] = second compound 0.316 µM, first compound 0.316 µM
[16] = second compound 0.316 µM, first compound 1 µM
[17] = second compound 0.316 µM, first compound 3.16 µM
[18] = second compound 0.316 µM, first compound 10 µM
[19] = second compound 1 µM, first compound 0.0316 µM
[20] = second compound 1 µM, first compound 0.1 µM
[21] = second compound 1 µM, first compound 0.316 µM
[22] = second compound 1 µM, first compound 1 µM
[23] = second compound 1 µM, first compound 3.16 µM
[24] = second compound 1 µM, first compound 10 µM
[25] = second compound 3.16 µM, first compound 0.0316 µM
[26] = second compound 3.16 µM, first compound 0.1 µM
[27] = second compound 3.16 µM, first compound 0.316 µM
[28] = second compound 3.16 µM, first compound 1 µM
[29] = second compound 3.16 µM, first compound 3.16 µM
[30] = second compound 3.16 µM, first compound 10 µM
[31] = second compound 10 µM, first compound 0.0316 µM
[32] = second compound 10 µM, first compound 0.1 µM
[33] = second compound 10 µM, first compound 0.316 µM
[34] = second compound 10 µM, first compound 1 µM
[35] = second compound 10 µM, first compound 3.16 µM
[36] = second compound 10 µM, first compound 10 µM
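Also: spheroids exposed to agents for 7 days before viability reading.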
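For viability, T/C in this document: percent of DMSO vehicle control viability so 100% = vehicle and 0% = no viable signal.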

Compound: C=CC(=O)N1CCN(c2nc(=O)n(-c3c(C)ccnc3C(C)C)c3nc(-c4c(O)cccc4F)c(F)cc23)C(C)C1 (stereo not drawn) + Cc1cccc(N(C)C(=O)C2C(O)CCN2c2nc(C)cc(C(F)(F)F)c2C#N)c1
- IC50 (second compound 0.0316 µM): > 10 µM
- IC50 (second compound 0.1 µM): > 10 µM
- IC50 (second compound 0.316 µM): > 10 µM
- IC50 (second compound 1 µM): > 10 µM
- IC50 (second compound 3.16 µM): > 10 µM
- IC50 (second compound 10 µM): > 10 µM
- viability, T/C [1]: 92.9%
- viability, T/C [2]: 99.6%
- viability, T/C [3]: 102%
- viability, T/C [4]: 110%
- viability, T/C [5]: 113%
- viability, T/C [6]: 115%
- viability, T/C [7]: 102%
- viability, T/C [8]: 89.4%
- viability, T/C [9]: 113%
- viability, T/C [10]: 93.8%
- viability, T/C [11]: 119%
- viability, T/C [12]: 105%
- viability, T/C [13]: 99.9%
- viability, T/C [14]: 103%
- viability, T/C [15]: 103%
- viability, T/C [16]: 103%
- viability, T/C [17]: 114%
- viability, T/C [18]: 110%
- viability, T/C [19]: 108%
- viability, T/C [20]: 89.7%
- viability, T/C [21]: 102%
- viability, T/C [22]: 113%
- viability, T/C [23]: 108%
- viability, T/C [24]: 109%
- viability, T/C [25]: 92.2%
- viability, T/C [26]: 91.3%
- viability, T/C [27]: 98.8%
- viability, T/C [28]: 105%
- viability, T/C [29]: 114%
- viability, T/C [30]: 104%
- viability, T/C [31]: 103%
- viability, T/C [32]: 104%
- viability, T/C [33]: 108%
- viability, T/C [34]: 109%
- viability, T/C [35]: 120%
- viability, T/C [36]: 119%

Compound: CCc1cc2c(N3CCc4c(cc(Cn5ccnc5)cc4-c4cn(C)nc4C(F)(F)F)C3=O)ccnc2c(OC)n1 + COC1C(OC(N)=O)C(O)C(Oc2ccc3c(O)c(NC(=O)c4ccc(O)c(CC=C(C)C)c4)c(=O)oc3c2C)OC1(C)C
- IC50 (second compound 0.0316 µM): > 10 µM
- IC50 (second compound 0.1 µM): > 10 µM
- IC50 (second compound 0.316 µM): > 10 µM
- IC50 (second compound 1 µM): > 10 µM
- IC50 (second compound 3.16 µM): > 10 µM
- IC50 (second compound 10 µM): > 10 µM
- viability, T/C [1]: 82.1%
- viability, T/C [2]: 102%
- viability, T/C [3]: 95.5%
- viability, T/C [4]: 107%
- viability, T/C [5]: 104%
- viability, T/C [6]: 97.3%
- viability, T/C [7]: 91.7%
- viability, T/C [8]: 89.8%
- viability, T/C [9]: 87.4%
- viability, T/C [10]: 87.6%
- viability, T/C [11]: 109%
- viability, T/C [12]: 96.4%
- viability, T/C [13]: 88.2%
- viability, T/C [14]: 89.8%
- viability, T/C [15]: 99.9%
- viability, T/C [16]: 99%
- viability, T/C [17]: 105%
- viability, T/C [18]: 97%
- viability, T/C [19]: 97.1%
- viability, T/C [20]: 85%
- viability, T/C [21]: 90.4%
- viability, T/C [22]: 112%
- viability, T/C [23]: 101%
- viability, T/C [24]: 91.9%
- viability, T/C [25]: 86.7%
- viability, T/C [26]: 91.4%
- viability, T/C [27]: 89.6%
- viability, T/C [28]: 96%
- viability, T/C [29]: 98.4%
- viability, T/C [30]: 93.9%
- viability, T/C [31]: 105%
- viability, T/C [32]: 80.6%
- viability, T/C [33]: 85.3%
- viability, T/C [34]: 101%
- viability, T/C [35]: 102%
- viability, T/C [36]: 101%

Compound: CC1COCCN1c1cc(-c2ccnn2C)c2ccnc(-c3ccn[nH]3)c2n1 (stereo not drawn) + COC1C(OC(N)=O)C(O)C(Oc2ccc3c(O)c(NC(=O)c4ccc(O)c(CC=C(C)C)c4)c(=O)oc3c2C)OC1(C)C
- IC50 (second compound 0.0316 µM): > 10 µM
- IC50 (second compound 0.1 µM): > 10 µM
- IC50 (second compound 0.316 µM): 8.54 µM
- IC50 (second compound 1 µM): > 10 µM
- IC50 (second compound 3.16 µM): > 10 µM
- IC50 (second compound 10 µM): > 10 µM
- viability, T/C [1]: 94.7%
- viability, T/C [2]: 101%
- viability, T/C [3]: 71.5%
- viability, T/C [4]: 57.2%
- viability, T/C [5]: 58.6%
- viability, T/C [6]: 53.3%
- viability, T/C [7]: 104%
- viability, T/C [8]: 97.1%
- viability, T/C [9]: 71.1%
- viability, T/C [10]: 57.1%
- viability, T/C [11]: 57%
- viability, T/C [12]: 47%
- viability, T/C [13]: 104%
- viability, T/C [14]: 99.9%
- viability, T/C [15]: 66%
- viability, T/C [16]: 56.4%
- viability, T/C [17]: 63.1%
- viability, T/C [18]: 47.5%
- viability, T/C [19]: 99.2%
- viability, T/C [20]: 93.3%
- viability, T/C [21]: 67.3%
- viability, T/C [22]: 64%
- viability, T/C [23]: 55.5%
- viability, T/C [24]: 51.5%
- viability, T/C [25]: 96.3%
- viability, T/C [26]: 85.3%
- viability, T/C [27]: 76.8%
- viability, T/C [28]: 56.1%
- viability, T/C [29]: 56.1%
- viability, T/C [30]: 52.6%
- viability, T/C [31]: 102%
- viability, T/C [32]: 80.8%
- viability, T/C [33]: 65.6%
- viability, T/C [34]: 56.5%
- viability, T/C [35]: 58.3%
- viability, T/C [36]: 50%

Compound: Nc1ccn(C2OC(CO)C(O)C2(F)F)c(=O)n1 (stereo not drawn) + Cc1cccc(N(C)C(=O)C2C(O)CCN2c2nc(C)cc(C(F)(F)F)c2C#N)c1
- IC50 (second compound 0.0316 µM): 0.958 µM
- IC50 (second compound 0.1 µM): 0.408 µM
- IC50 (second compound 0.316 µM): 0.468 µM
- IC50 (second compound 1 µM): 1.24 µM
- IC50 (second compound 3.16 µM): 2.05 µM
- IC50 (second compound 10 µM): 3.29 µM
- viability, T/C [1]: 70.1%
- viability, T/C [2]: 57%
- viability, T/C [3]: 53.7%
- viability, T/C [4]: 52.5%
- viability, T/C [5]: 48%
- viability, T/C [6]: 39%
- viability, T/C [7]: 75%
- viability, T/C [8]: 58.9%
- viability, T/C [9]: 50.3%
- viability, T/C [10]: 48.8%
- viability, T/C [11]: 45%
- viability, T/C [12]: 44.7%
- viability, T/C [13]: 75%
- viability, T/C [14]: 62.3%
- viability, T/C [15]: 49.6%
- viability, T/C [16]: 44.6%
- viability, T/C [17]: 51.6%
- viability, T/C [18]: 37.9%
- viability, T/C [19]: 74%
- viability, T/C [20]: 55.3%
- viability, T/C [21]: 60.9%
- viability, T/C [22]: 52.6%
- viability, T/C [23]: 44.8%
- viability, T/C [24]: 42.1%
- viability, T/C [25]: 72.9%
- viability, T/C [26]: 63.3%
- viability, T/C [27]: 57.9%
- viability, T/C [28]: 55%
- viability, T/C [29]: 45.6%
- viability, T/C [30]: 46.5%
- viability, T/C [31]: 76.4%
- viability, T/C [32]: 63.5%
- viability, T/C [33]: 56.6%
- viability, T/C [34]: 59.5%
- viability, T/C [35]: 53.6%
- viability, T/C [36]: 42.6%

Source: PubChem BioAssay AID1963835 (Molecular Pharmacology Branch, DTP, NCI, 2024)
